Patent US6541467B1, “Thrombin inhibitors having a lactam at P3” (Corvas International, Inc., priority 2000, dated 2003)
pIC50, pKi: −log10 of the molar value.

Assays:
Type in all cases: biochemical
human α-thrombin = biological target: T1, human α-thrombin (Homo sapiens, UniProt P00734); experiment: Thrombin (fIIa) chromogenic enzyme assay; conditions: for pIC50: 0 min
T1 construct: Purified human α-thrombin; purchased Enzyme Research Laboratories, Inc
Method: For screening compounds using these assays, the compounds of the present invention are dissolved in buffer to give solutions containing concentrations such that assay concentrations range from 0 to 100 micromolar. In the assays for thrombin, plasmin, t-PA, aPC, chymotrypsin, and trypsin, a chromogenic synthetic substrate is added to a solution containing test compound and the enzyme of interest and the residual catalytic activity of that enzyme is determined spectrophometrically. The IC50 of a compound of the present invention is determined from the rate of substrate turnover caused by the specific enzyme being measured. IC50 is the concentration of test compound which gives 50% inhibition of the rate of substrate turnover. Likewise, the Ki of a compound of the present invention is determined from the rate of substrate turnover caused by the specific enzyme being measured at various […] concentrations. Example A provides exemplars of in vitro assays used to select the compounds of the present invention.
(§1) The ability of compounds of the present invention to act as a selective inhibitor of thrombin activity was assessed by determining the concentration of test-compound which inhibited the activity of this enzyme by 50%, (IC50), and comparing this value to that determined for all or some of the following related serine proteases: recombinant tissue plasminogen activator (rt-PA), plasmin, activated protein C, chymotrypsin, factor Xa and trypsin.
(§2) The buffer used for all assays was HBSA (10 mM HEPES, pH 7.5, 150 mM sodium chloride, 0.1% bovine serum albumin).
The assay for IC50 determinations was conducted by combining in appropriate wells of a Corning microtiter plate, 50 microliters of HBSA, 50 microliters of the test compound at a specified concentration (covering a broad concentration range) diluted in HBSA (or HBSA alone for V0 (uninhibited velocity) measurement), and 50 microliters of the enzyme diluted in HBSA. […] The initial velocity of chromogenic substrate hydrolysis was measured by the change in absorbance at 405 nm using a Thermo Max® Kinetic Microplate Reader over a 5 minute period in which less than 5% of the added substrate was utilized. The concentration of added inhibitor which caused a 50% decrease in the initial rate of hydrolysis was defined as the IC50 value.
Enzyme activity was determined using the chromogenic substrate, Pefachrome t-PA (CH3SO2-D-hexahydrotyrosine-glycyl-L-Arginine-p-nitroaniline, obtained from Pentapharm Ltd.). The substrate was reconstituted in deionized water prior to use. Purified human α-thrombin was obtained from Enzyme Research Laboratories, Inc. The buffer used for all assays was HBSA (10 mM HEPES, pH 7.5, 150 mM sodium chloride, 0.1% bovine serum albumin).
The initial velocity of Pefachrome t-PA hydrolysis was measured by the change in absorbance at 405 nm using a Thermo Max® Kinetic Microplate Reader over a 5 minute period in which less than 5% of the added substrate was utilized. The concentration of:added inhibitor which caused a 50% decrease in the initial rate of hydrolysis was defined as the IC50 value.

Factor Xa = biological target: T2, Factor Xa (Homo sapiens, UniProt P00742); experiment: Factor Xa chromogenic enzyme assay; conditions: read-out: fXa IC50
T2 construct: purchased Enzyme Research Laboratories, Inc. (South Bend, Ind.)
Method: as §1, §2
(§3) The assay for IC50 determinations was conducted by combining in appropriate wells of a Corning microtiter plate, 50 microliters of HBSA, 50 microliters of the test compound at a specified concentration (covering a broad concentration range) diluted in HBSA (or HBSA alone for V0 (uninhibited velocity) measurement), and 50 microliters of the enzyme diluted in HBSA. Following a 30 minute incubation at ambient temperature, 50 microliters of the substrate at the concentrations specified below were added to the wells, yielding a final total volume of 200 microliters. The initial velocity of chromogenic substrate hydrolysis was measured by the change in absorbance at 405 nm using a Thermo Max® Kinetic Microplate Reader over a 5 minute period in which less than 5% of the added substrate was utilized. The concentration of added inhibitor which caused a 50% decrease in the initial rate of hydrolysis was defined as the IC50 value.
Factor Xa catalytic activity was determined using the chromogenic substrate S-2765 (N-benzyloxycarbonyl-D-arginine-L-glycine-L-arginine-p-nitroaniline), obtained from DiaPharma Group (Franklin, Ohio). All substrates were reconstituted in deionized water prior to use. […] Purified human Factor X was obtained from Enzyme Research Laboratories, Inc. (South Bend, Ind.) and Factor Xa (FXa) was activated and prepared from it as described [Bock, P. E., Craig, P. A., Olson, S. T., and Singh, P. Arch. Biochem. Biophys. 273:375-388 (1989)]. The enzyme was diluted into HBSA prior to assay in which the final concentration was 0.25 nM.

human plasmin = biological target: T3, human plasmin (Homo sapiens, UniProt P00747); experiment: Plasmin chromogenic enzyme assay
T3 construct: Purified human plasmin; purchased Enzyme Research Laboratories, Inc
Method: as §1, §2, §3
Plasmin catalytic activity was determined using the chromogenic substrate, S-2366 [L-pyroglutamyl-L-prolyl-L-arginine-p-nitroaniline hydrochloride], which was obtained from DiaPharma group. The substrate was made up in deionized water followed by dilution in HBSA prior to the assay in which the final concentration was 300 micromolar (about 2:.5-times Km). Purified human plasmin was obtained from Enzyme Research Laboratories, Inc. The enzyme was diluted into HBSA prior to assay in which the final concentration was 1.0 nM.

[1] = biological target: T4, bovine pancreatic trypsin (Bos taurus, UniProt P00760); experiment: Trypsin chromogenic enzyme assay
T4 sequence (P00760 24-246): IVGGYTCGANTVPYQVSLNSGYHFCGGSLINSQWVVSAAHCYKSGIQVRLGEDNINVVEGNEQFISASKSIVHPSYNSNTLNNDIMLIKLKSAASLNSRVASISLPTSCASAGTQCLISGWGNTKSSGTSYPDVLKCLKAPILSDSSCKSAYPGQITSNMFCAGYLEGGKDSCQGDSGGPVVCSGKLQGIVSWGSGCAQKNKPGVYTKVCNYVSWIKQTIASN
Method: as §1, §2, §3
Trypsin catalytic activity was determined using the chromogenic substrate, S-2222 (benzoyl-L-isoleucine-L-glutamic acid-[gamma-methyl ester]-L-arginine-p-nitroanilide), which was obtained from DiaPharma Group. […] Purified (3×-crystallized; TRL3) bovine pancreatic trypsin was obtained from Worthington Biochemical Corp. The enzyme was reconstituted in deionized water and diluted into HBSA prior to assay in which the final concentration was 0.5 nM.

T2 sequence (P00742 235-488 limits assumed): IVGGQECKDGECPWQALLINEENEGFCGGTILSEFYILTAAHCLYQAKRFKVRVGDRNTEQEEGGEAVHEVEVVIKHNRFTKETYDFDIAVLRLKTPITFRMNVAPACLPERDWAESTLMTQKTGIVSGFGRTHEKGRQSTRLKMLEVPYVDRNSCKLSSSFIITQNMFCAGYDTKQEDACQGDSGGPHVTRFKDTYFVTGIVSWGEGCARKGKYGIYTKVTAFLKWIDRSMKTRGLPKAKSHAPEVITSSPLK
T2 sequence (P00742 41-179 partner limits assumed): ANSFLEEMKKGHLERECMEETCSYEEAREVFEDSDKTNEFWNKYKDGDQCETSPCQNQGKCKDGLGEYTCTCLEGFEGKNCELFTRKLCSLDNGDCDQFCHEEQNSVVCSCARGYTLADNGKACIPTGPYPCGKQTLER
T3 sequence (P00747 581-810 limits assumed): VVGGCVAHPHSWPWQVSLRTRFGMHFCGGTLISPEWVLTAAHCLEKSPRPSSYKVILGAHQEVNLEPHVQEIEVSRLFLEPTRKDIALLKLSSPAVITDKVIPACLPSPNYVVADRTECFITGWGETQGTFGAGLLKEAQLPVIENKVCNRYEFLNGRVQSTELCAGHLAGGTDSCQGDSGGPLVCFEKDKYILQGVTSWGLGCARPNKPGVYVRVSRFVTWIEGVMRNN
T3 sequence (P00747 97-580 partner limits assumed): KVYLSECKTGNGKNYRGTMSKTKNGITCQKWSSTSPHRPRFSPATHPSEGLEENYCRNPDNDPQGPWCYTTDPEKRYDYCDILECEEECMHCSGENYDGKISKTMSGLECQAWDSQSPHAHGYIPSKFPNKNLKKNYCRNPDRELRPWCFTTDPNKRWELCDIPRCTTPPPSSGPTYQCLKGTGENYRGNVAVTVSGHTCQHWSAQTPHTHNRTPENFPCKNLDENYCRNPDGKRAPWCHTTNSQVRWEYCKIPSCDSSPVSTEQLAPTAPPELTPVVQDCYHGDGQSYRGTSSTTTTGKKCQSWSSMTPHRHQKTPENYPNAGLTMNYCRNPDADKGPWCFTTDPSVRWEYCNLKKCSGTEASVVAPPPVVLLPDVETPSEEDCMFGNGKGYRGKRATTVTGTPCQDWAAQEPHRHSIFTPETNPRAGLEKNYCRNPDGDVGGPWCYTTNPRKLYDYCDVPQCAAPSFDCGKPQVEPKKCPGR

pKi (human α-thrombin) | pIC50 (human α-thrombin) | pIC50 (Factor Xa) | pIC50 (human plasmin) | pIC50 [1] | Compound
≤ 5.60 | ≤ 5.60 | ≤ 5.60 | ≤ 5.60 | ≤ 5.60 | N/C(=N\O)c1ccc(CNC(=O)[C@@H]2Cc3cccc4c3N2C(=O)[C@@H](NS(=O)(=O)c2ccc3c(c2)CCO3)CC4)cc1 [Example 60, N-(2,3-Dihydrobenzo[b]furanyl-5-sulfonyl)-Haic-aminomethylphenyl-N-hydroxyamidine]
≥ 7.00 | ≥ 7.00 | 5.60 to 6.52 | ≤ 5.60 | ≥ 7.00 | N=C(N)c1ccc(CNC(=O)[C@@H]2Cc3cccc4c3N2C(=O)[C@@H](NS(=O)(=O)c2ccc3c(c2)CCO3)CC4)cc1 [Example 61, N-(2,3-Dihydrobenzo[b]furanyl-5-sulfonyl)-Haic-aminomethylphenylamidine]
6.52 to 7.00 | 5.60 to 6.52 | ≤ 5.60 | ≤ 5.60 | ≤ 5.60 | N[C@H]1CC[C@H](CNC(=O)CN2CCCC[C@H](NS(=O)(=O)Cc3ccccc3)C2=O)CC1 [Example 65]
≥ 7.00 | 5.60 to 6.52 | ≤ 5.60 | ≤ 5.60 | ≤ 5.60 | Cc1nc(N)ccc1CNC(=O)CN1CCCC[C@H](NS(=O)(=O)Cc2ccccc2)C1=O [Example 66]
≥ 7.00 | 6.52 to 7.00 | 5.60 to 6.52 | ≤ 5.60 | 5.60 to 6.52 | N=C(N)c1ccc(CNC(=O)CN2CCCC[C@H](NS(=O)(=O)Cc3ccccc3)C2=O)cc1 [Example 67]
